Reference: patent publication US20220277805A1, “GENETIC MUTATIONAL ANALYSIS” (BioSkryb Genomics, Inc., priority 2019, published 2022)
“Also recorded” adds a separate entry of the source.

Experiments:
[1] = tested on: clone harboring an activating KRAS mutation; test: leukemia cells in culture exposed to standard ALL chemotherapy drugs, bulk sequencing of clones; assay type: cell-based; details: FIG. 7
Excerpt: Given such a massive population genetic diversity, it has been hypothesized that there are clones that are more resistant to treatment within a given patient. To test that hypothesis, the sample is placed in culture and the leukemia cells are exposed to increasing concentrations of standard ALL chemotherapy drugs. […] This approach also employed bulk sequencing of the treated samples. The use of single-cell DNA sequencing in some instances allows a determination of the diversity and clonotypes of the expanding populations.

cord blood CD34+ cells = test: direct measurement of environmental mutagenicity (DMEM), single-cell PTA sequencing; assay type: cell-based, human; details: for enrichment of cytosine variants in DNase I hypersensitivity sites: compared to DH sites of CD34+ cells, Roadmap Epigenomics Project, FIG. 12D, 12E
Excerpt: PTA was used to conduct a novel mutagenicity assay that provides a framework for performing high-resolution, genome wide human toxicogenomics studies. Previous studies such as the Ames test, relies on bacterial genetics to make measurements that are assumed to be representative of human cells while only providing limited information on the mutation number and patterns induced in each exposed cell. To overcome these limitations, a human mutagenesis system “direct measurement of environmental mutagenicity (DMEM)” was developed, wherein single human cells was exposed to an environmental compound, isolated as single cells, and subjected to single-cell sequencing to identify the new mutations induced in each cell.
Umbilical cord blood cells that express the stem/progenitor marker CD34 were exposed to increasing concentrations of the direct mutagen N-ethyl-N-nitrosourea (ENU).
ENU (CAS 759-73-9) and D-mannitol (CAS 69-65-8) were put into solution at their maximal solubility. Fresh anticoagulant-treated umbilical cord blood (CB) was obtained from St. Louis Cord Blood Bank. CB was diluted 1:2 with PBS and mononuclear cells (MNCs) were isolated by density gradient centrifugation on Ficoll-Paque Plus according to manufacturer's instructions. CB MNCs expressing CD34 were then immunomagnetically selected using the human CD34 microbead kit and magnetic cell sorting (MACS) system as per the manufacturer. Cell count and viability were assessed using the Luna FL cell counter. CB CD34+ cells were seeded at a density of 2.5×10^4 cells/mL in StemSpan SFEM supplemented with 1× CD34+ Expansion supplement, 100 units/mL of penicillin, and 100 ug/mL of streptomycin where they expanded for 96 hours before proceeding to mutagen exposure.
Expanded cord blood CD34+ cells were cultured in StemSpan SFEM supplemented with 1× CD34+ Expansion Supplement, 100 units/mL of penicillin, and 100 ug/mL of streptomycin. The cells were exposed to ENU at concentrations of 8.54, 85.4, and 854 uM, D-mannitol at 1152.8, and 11528 uM, or 0.9% sodium chloride (vehicle control) for 40 hours. Single-cell suspensions from drug-treated cells and vehicle control samples were harvested and stained for viability as described above. Single cell sorts were carried out as described above. PTA was performed and libraries were prepared using a simplified and improved protocol as per the general methods of the methods described herein, and Example 2.
Data acquired from cells in the DMEM experiments were trimmed using Trimmomatic, aligned to GRCh38 using BWA, and further processed using GATK 4.0.1 best practices without deviation from the recommended parameters. Genotyping was performed using HaplotypeCaller where joint genotypes were again filtered using standard parameters. […] The trinucleotide context of each SNV was determined by extracting the surrounding bases from the reference genome using bedtools. Mutation counts and context were visualized using ggplot2 and heatmap2 in R.
To determine whether mutations were enriched in DNase I hypersensitivity sites (DHS) in CD34+ cells, the proportion of SNVs in each sample that overlap with DHS sites from 10 CD34+ primary cell datasets produced by the Roadmap Epigenomics Project were calculated. DHS sites were extended by 2 nucleosomes, or 340 bases in either direction. Each DHS dataset was paired with a single cell sample where we determined the proportion of the human genome with at least 10× coverage in that cell which overlapped with a DHS, which was compared to the proportion of SNVs that were found within the covered DHS sites.

mice = details: limited sequencing of target genes; cited from earlier work

## C[C@]12C=CC(=O)C=C1CC[C@@H]1[C@@H]2[C@@H](O)C[C@@]2(C)[C@H]1CC[C@]2(O)C(=O)CO [prednisolone]
[1]; in culture with drug
  response of the clone harboring an activating KRAS mutation: more sensitive; also recorded: killed

## COc1cccc2c1C(=O)c1c(O)c3c(c(O)c1C2=O)C[C@@](O)(C(C)=O)C[C@@H]3O[C@H]1C[C@H](N)[C@H](O)[C@H](C)O1 [daunorubicin]
[1]; in culture with drug
  response of the clone harboring an activating KRAS mutation: more sensitive; also recorded: killed

## asparaginase
[1]; lowest dose
  response of the clone harboring an activating KRAS mutation: continued to expand

## CCN(N=O)C(N)=O [ENU, N-ethyl-N-nitrosourea]
Cord blood CD34+ cells; FIG. 12B
  most common mutations (base changes): T to A (A to T), T to C (A to G), and C to T (G to A)
Cord blood CD34+ cells; all ENU induced mutations, FIG. 12E
  enrichment in variant locations at DH sites: No significant enrichment in variant locations at DH sites
Cord blood CD34+ cells
  enrichment of cytosine variants in DNase I hypersensitivity sites: no enrichment of cytosine variants in DNase I hypersensitivity sites was observed; also recorded: no enrichment of variants restricted to cytosines was observed in DH sites
Cord blood CD34+ cells; listed as N-ethyl-N-nitrosourea
  enrichment of cytosine variants in DNase I hypersensitivity sites: No significant enrichment of cytosine variants was observed
Cord blood CD34+ cells; increasing ENU concentrations 8.54, 85.4, 854 uM, 40 hours, FIG. 12A
  mutation number of each cell: dose-dependent increase in mutation number of each cell
Cord blood CD34+ cells; relative to proportion of the genome each annotation comprises, FIG. 12F
  enrichment of variants in genomic locations with specific annotations: No specific enrichment
mice
  preferred base changes: T to A (A to T), T to C (A to G), and C to T (G to A)
